Laboratory results from publication PMC9923724, “Half sandwich-type osmium, ruthenium, iridium and rhodium complexes with bidentate glycosyl heterocyclic ligands induce cytostasis in platinum-resistant ovarian cancer cells and bacteriostasis in Gram-positive multiresistant bacteria” (Frontiers in Chemistry, 2023).

Legend:
[1] = test system: cisplatin resistant A2780 cells; experiment: SRB assay (48 h) on cisplatin-resistant A2780 cells; type: cell-based; conditions: for IC50 / cisplatin resistant A2780 SRB Max. (maximal inhibition): cisplatin resistant A2780 cells, SRB, 48 h
Method: 6 × 10^3 cisplatin-resistant A2780 cells were plated to 96 well plates. Cells were treated with the compounds in the concentrations indicated for either 4 h for an MTT assay or for 48 h for an SRB assay. Data is represented as average ± SD, from three biological replicates; individual assays were performed in duplicates. Values were normalized for vehicle treated cells, absorbance for vehicle treated cells equals to 1. Each compound was assessed individually. Normality was assessed using the Shapiro-Wilk test. […] Statistical significance was assessed using One-way ANOVA test comparing all points to the smallest concentration. For better visibility the p values are presented in an excel sheet at https://figshare.com/s/2c942a812caea8869a67. Non-linear regression was performed on the results of the SRB assay datasets.
Cisplatin resistant cells underwent selection (1 µM cisplatin) once a week for 3 days before plating for any assay.
The assay was performed similar to ([Kovács et al., 2019]). Cells were seeded in 96 well plates the day before the assay. Cells were treated with the compounds for 48 h. Cells were fixed with 10% trichloroacetic acid (TCA). Fixed cells were washed in distilled water 3 times followed by staining with SRB (0.4 m/V% dissolved in 1% acetic acid) for 10 min. Stained cells were washed in 1% acetic acid 5 times; acetic acid was removed and cells were left to dry. Protein-bound SRB was released by adding 100 µl 10 mM Tris base. Plates were measured in a plate photometer (Thermo Scientific Multiscan GO spectrophotometer, Waltham, MA, United States) at 540 nm. On each plate wells were designed to contain vehicle-treated cells. In calculations the readings for these wells was considered as 1 and all readings were expressed relative to these values.
Statistical analysis was performed using 8.0.1 version of Graphpad Prism. Values were tested for normal distribution using the D’Agostino and Pearson normality test. When necessary, values were log normalized or were normalized using the Box-Cox normalization method ([Box and Cox, 1964]) as indicated in the figure captions.

[2] = test system: vancomycin-resistant Enterococcus (VRE) clinical isolates; experiment: Broth microdilution MIC, clinical VRE isolates; type: cell-based, E. faecium; conditions: for MIC against clinical VRE isolates (as a group): 3 clinical VRE isolates; for MIC, VRE 25 051: clinical isolate 25 051, nephrostoma; for MIC, VRE 25 051 / MIC, VRE 25 498 / MIC, VRE 27 085: 2018; for MIC, VRE 25 498: clinical isolate 25 498, rectal swab; for MIC, VRE 27 085: clinical isolate 27 085, wound
Method: (§1) The MIC values of the complexes were determined against the reference strains of S. aureus (ATCC29213) and E. faecalis. (ATCC29212) and against clinical VRE and MRSA isolates by microdilution assays (repeated at least twice in duplicates) as described in Materials and Methods. The numbers indicate how many isolates were susceptible to the compound out of those tested; i.e., 1/6 stands for 1 isolate was susceptible out of 6 tested. […] Cells were harvested and lysed. Cellular proteins was separated on a 10% SDS-PAGE gel and were blotted. Blots were probed with 4HNE antibody (top blot), the lower blot was stained with amido black. Arrows point at band of interest. Experiments were repeated three times and a representative blot is shown. On the blots brightness and contrast were adjusted. […] Each was matched to a substance and strain by its position over the x-axis categories. / Ir-7: ND and 0/3 (left plot) and ND and 0/6 (right plot) were matched to E. faecalis/VRE and S. aureus/MRSA by position only.
(§2) We used a set of clinical isloates of S. aureus and E. faecium that were collected at the Medical Center of the University of Debrecen (Hungary) between 01. 01. 2018.—31. 12. 2020. The clinical isolates were identified using a Microflex MALDI-TOF mass spectrometer (Bruker, Billerica, MA, United States). Antibiotic susceptibility of the isolates was tested following the European Committee on Antimicrobial Susceptibility Testing ([EUCAST, 2021]) guidelines valid at the time of collection.
(§3) Microdilution experiments were performed according to the standards of EUCAST ([EUCAST, 2021]). […] The inoculated plates were incubated for 24 h at 37°C then were assessed visually. […] All experiments were performed at least twice in duplicates.

[3] = test system: methicillin-resistant Staphylococcus aureus (MRSA) clinical isolates; experiment: Broth microdilution MIC, clinical MRSA isolates; type: cell-based; conditions: for MIC against clinical MRSA isolates (as a group): 6 clinical MRSA isolates; for MIC, MRSA 20 426: clinical isolate 20 426, blood, 2020; for MIC, MRSA 24 035: clinical isolate 24 035, wound; for MIC, MRSA 24 035 / MIC, MRSA 24 268 / MIC, MRSA 24 272 / MIC, MRSA 24 328 / MIC, MRSA 24 408: 2018; for MIC, MRSA 24 268: clinical isolate 24 268, throat; for MIC, MRSA 24 272: clinical isolate 24 272, throat; for MIC, MRSA 24 328: clinical isolate 24 328, throat; for MIC, MRSA 24 408: clinical isolate 24 408, bronchial
Method: as §1, §2, §3

Cc1ccc(C(C)C)cc1.F[P-](F)(F)(F)(F)F.O=C(OCC1OC(n2cc(-c3ccc4ccccc4n3)nn2)C(OC(=O)c2ccccc2)C(OC(=O)c2ccccc2)C1OC(=O)c1ccccc1)c1ccccc1.[Cl][Ru+] (mixture of isomers) [Ru-7]
IC50 [1]: 1.18 µM
cisplatin resistant A2780 SRB Max. (maximal inhibition) [1]: >90%
MIC against clinical VRE isolates (as a group) [2]: 5 µM
MIC, VRE 25 051 [2]: 5 µM
MIC, VRE 25 498 [2]: 5 µM
MIC, VRE 27 085 [2]: 5 µM
MIC against clinical MRSA isolates (as a group) [3]: 5 to 40 µM
MIC, MRSA 20 426 [3]: 10 µM
MIC, MRSA 24 035 [3]: 40 µM
MIC, MRSA 24 268 [3]: 20 µM
MIC, MRSA 24 272 [3]: 5 µM
MIC, MRSA 24 328 [3]: 10 µM
MIC, MRSA 24 408 [3]: 10 µM

Cc1c(C)c(C)[c-](C)c1C.F[P-](F)(F)(F)(F)F.O=C(OCC1OC(n2cc(-c3ccc4ccccc4n3)nn2)C(OC(=O)c2ccccc2)C(OC(=O)c2ccccc2)C1OC(=O)c1ccccc1)c1ccccc1.[Cl][Ir+2] (mixture of isomers) [Ir-7]
IC50 [1]: 1.54 µM
cisplatin resistant A2780 SRB Max. (maximal inhibition) [1]: >90%
MIC against clinical VRE isolates (as a group) [2]: no activity
MIC, VRE 25 051 [2]: 40< µM
MIC, VRE 25 498 [2]: 40< µM
MIC, VRE 27 085 [2]: 40< µM
MIC against clinical MRSA isolates (as a group) [3]: no activity
MIC, MRSA 20 426 [3]: 40< µM
MIC, MRSA 24 035 [3]: 40< µM
MIC, MRSA 24 268 [3]: 40< µM
MIC, MRSA 24 272 [3]: 40< µM
MIC, MRSA 24 328 [3]: 40< µM
MIC, MRSA 24 408 [3]: 40< µM

Cc1ccc(C(C)C)cc1.F[P-](F)(F)(F)(F)F.O=C(OCC1OC(n2cc(-c3ccc4ccccc4n3)nn2)C(OC(=O)c2ccccc2)C(OC(=O)c2ccccc2)C1OC(=O)c1ccccc1)c1ccccc1.[Cl][Os+] (mixture of isomers) [Os-7]
fold change of IC50, cisplatin resistant vs cisplatin sensitive A2780 ([1]; SRB assays, resistant / sensitive A2780): technically unchanged
IC50 [1]: 0.476 µM
cisplatin resistant A2780 SRB Max. (maximal inhibition) [1]: >90%
MIC against clinical VRE isolates (as a group) [2]: 10 µM
MIC, VRE 25 051 [2]: 10 µM
MIC, VRE 25 498 [2]: 10 µM
MIC, VRE 27 085 [2]: 10 µM
MIC against clinical MRSA isolates (as a group) [3]: 5 µM
MRSA isolates susceptible out of those tested ([3]; 6 isolates tested, susceptible = MIC up to 40 µM): 1 out of the 6
MIC, MRSA 20 426 [3]: 40< µM
MIC, MRSA 24 035 [3]: 40< µM
MIC, MRSA 24 268 [3]: 40< µM
MIC, MRSA 24 272 [3]: 5 µM
MIC, MRSA 24 328 [3]: 40< µM
MIC, MRSA 24 408 [3]: 40< µM
